Patent publication US10662156B2, “Guanidine derivative and medical use thereof” (Toray Industries, Inc., priority 2016, dated 2020)
Where a name gives a salt, the structure may show the parent alone.

What follows are compounds tested against recombinant GST fusion MALT1 (human MALT1) (Homo sapiens (Human), UniProt Q9UDY8) (assay: Evaluation of inhibition of protease activity of MALT1 (cleavage of fluorescent peptide substrate Ac-LRSR-AMC)). Details: substrate Ac-LRSR-AMC 20 μmol/L, 30° C. for 80 minutes.
Sequence of recombinant GST fusion MALT1 (human MALT1) (Q9UDY8 whole entry, the tested form may be a part): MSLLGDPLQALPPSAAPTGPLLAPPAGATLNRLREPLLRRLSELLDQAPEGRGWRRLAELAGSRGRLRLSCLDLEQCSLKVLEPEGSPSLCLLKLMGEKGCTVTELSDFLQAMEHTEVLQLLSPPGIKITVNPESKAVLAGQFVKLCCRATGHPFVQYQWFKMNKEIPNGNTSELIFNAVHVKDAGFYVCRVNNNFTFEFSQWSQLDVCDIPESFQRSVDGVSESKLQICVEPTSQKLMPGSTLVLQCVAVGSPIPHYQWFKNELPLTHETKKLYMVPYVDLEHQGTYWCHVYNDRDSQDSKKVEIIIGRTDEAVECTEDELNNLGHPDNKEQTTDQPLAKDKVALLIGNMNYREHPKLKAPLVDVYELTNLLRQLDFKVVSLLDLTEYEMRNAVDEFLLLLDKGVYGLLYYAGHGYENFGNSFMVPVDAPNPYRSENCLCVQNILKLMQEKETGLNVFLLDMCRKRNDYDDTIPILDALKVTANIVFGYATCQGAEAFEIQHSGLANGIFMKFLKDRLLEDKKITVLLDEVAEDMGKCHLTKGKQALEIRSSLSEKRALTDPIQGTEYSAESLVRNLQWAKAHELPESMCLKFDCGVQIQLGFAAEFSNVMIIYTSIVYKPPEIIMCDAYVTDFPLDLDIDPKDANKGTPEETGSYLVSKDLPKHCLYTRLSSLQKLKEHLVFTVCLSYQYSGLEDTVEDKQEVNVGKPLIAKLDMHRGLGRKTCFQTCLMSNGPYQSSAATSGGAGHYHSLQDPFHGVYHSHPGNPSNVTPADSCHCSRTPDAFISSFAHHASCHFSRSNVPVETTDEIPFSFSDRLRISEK
Assay type: biochemical
Experimental: The guanidine derivative (I) or the pharmacologically acceptable salt thereof was evaluated for its inhibition of the protease activity of MALT1 in an in vitro experimental system in accordance with the method described in the literature (Cancer Cell, 2012, Vol. 22, p. 825-837). Specifically, the evaluation was conducted by measuring the degree of reduction in fluorescence value by the compound relative to elevation in fluorescence value resulting from the cleavage of a fluorescently labeled artificial peptide substrate by recombinant MALT1.
A) Preparation of Recombinant GST Fusion MALT1:
Full-length cDNA of human MALT1 gene (GenBank accession No: AB026118.1) amplified by PCR was inserted in flame to a SalI site located downstream of GST gene in a pGEX6P3 vector (GE Healthcare Japan Corp.) to prepare a vector (hereinafter, referred to as a pGEX6P3-MALT1 vector). Subsequently, E. coli for protein expression (BL21-RIL-codon plus-DE3, Agilent Technologies, Inc.) was transformed with the pGEX6P3-MALT1 vector and then analyzed by ampicillin resistance screening and colony PCR to obtain an E. coli strain expressing recombinant GST fusion MALT1. Protein expression was induced with isopropyl-(3-thiogalactopyranoside. After the expression induction, E. coli precipitates were recovered by centrifugation from the E. coli culture solution, and the E. coli precipitates were homogenized and then centrifuged to obtain a supernatant. The supernatant was purified using GSTrap FF column (GE Healthcare Japan Corp.) to obtain recombinant GST fusion MALT1.
B) Evaluation of Inhibition of Protease Activity of MALT1:
To 89 μL of an enzyme solution ([…] GST fusion MALT1, 50 mmol/L MES, 150 mmol/L NaCl, 10% sucrose, 0.1% CHAPS, 10 mmol/L dithiothreitol, and 1 mol/L tri-ammonium citrate) per specimen, 1 μL of a test compound (DMSO-diluted solution) of each concentration was added to prepare a mixed solution. The mixed solution was incubated at room temperature for 30 minutes, followed by the measurement of the fluorescence value of the mixed solution (fluorescence value of the first measurement) (Ex: 380 nm, Em: 460 nm; Envision (Perkin Elmer Inc.)). Next, 10 μL of 200 μmol/L substrate (Ac-LRSR-AMC, SM Biochemicals LLC) was added (final concentration: 20 μmol/L) to the mixed solution, and the mixture was reacted by incubation at 30° C. for 80 minutes, followed by the measurement of the fluorescence value of the reaction solution (fluorescence value of the second measurement) (Ex: 380 nm, Em: 460 nm; Envision (Perkin Elmer Inc.)). A “well nonsupplemented with the test compound (only DMSO was added), nonsupplemented with the enzyme and supplemented with the substrate”, and a “well nonsupplemented with the test compound (only DMSO was added), supplemented with the enzyme and supplemented with the substrate” were established.
The fluorescence value of the first measurement was defined as “F1”, and the fluorescence value of the second measurement was defined as “F2”. F2−F1 of the “well nonsupplemented with the test compound (only DMSO was added), nonsupplemented with the enzyme and supplemented with the substrate” was defined as “Fback”, F2−F1 of the “well nonsupplemented with the test compound (only DMSO was added), supplemented with the enzyme and supplemented with the substrate” was defined as “Fpositive”, and F2−F1 of the “well supplemented with the test compound, supplemented with the enzyme and supplemented with the substrate” was defined as “Fsample”. The rate of inhibition (%) of the protease activity of MALT1 by the test compound was calculated according to the following expression. Rate of inhibition (%)=100×(1−(Fsample−Fback)/(Fpositive−Fback))

Structure (SMILES)	IC50
COCC(=O)/N=C(\N)NCc1cnc(-c2ccc(Cl)cc2)c(-c2ccc(Cl)cc2)c1 [Compound of Example 63, N-(amino(((5,6-bis(4-chlorophenyl)pyridin-3-yl)methyl)amino)methylene)-2-methoxyacetamide]	640 nM
N/C(=N\S(=O)(=O)c1cccc(Cl)c1)NCc1cnc(-c2ccc(Cl)cc2)c(-c2ccc(Cl)cc2)c1 [Compound of Example 48, N-(amino(((5,6-bis(4-chlorophenyl)pyridin-3-yl)methyl)amino)methylene)-3-chlorobenzenesulfonamide]	333 nM
N/C(=N\S(=O)(=O)c1ccccc1)NCc1cnc(-c2cccc(Cl)c2)c(-c2ccc(Cl)cc2)c1 [Compound of Example 4, N-(amino(((6-(3-chlorophenyl)-5-(4-chlorophenyl)pyridin-3-yl)methyl)amino)methylene)benzenesulfonamide]	1400 nM
N/C(=N\S(=O)(=O)Cc1ccccc1)NCc1cnc(-c2ccc(Cl)cc2)c(-c2ccc(Cl)cc2)c1 [Compound of Example 59, N-(amino(((5,6-bis(4-chlorophenyl)pyridin-3-yl)methyl)amino)methylene)-1-phenylmethanesulfonamide]	746 nM
N/C(=N\S(=O)(=O)c1ccccc1)NCc1cc(-c2ccc(Cl)cc2)c(-c2ccc(Cl)cc2)nc1O [Compound of Example 91, N-(amino(((5,6-bis(4-chlorophenyl)-2-hydroxypyridin-3-yl)methyl)amino)methylene)benzenesulfonamide]	112 nM
N/C(=N\S(=O)(=O)C1CC1)NCc1cnc(-c2ccc(Cl)cc2)c(-c2ccc(Cl)cc2)c1 [Compound of Example 58, N-(amino(((5,6-bis(4-chlorophenyl)pyridin-3-yl)methyl)amino)methylene)cyclopropanesulfonamide]	743 nM
N/C(=N\S(=O)(=O)c1ccccc1)NCc1cnc(-c2cccc(F)c2)c(-c2ccc(Cl)cc2)c1 [Compound of Example 9, N-(amino(((5-(4-chlorophenyl)-6-(3-fluorophenyl)pyridin-3-yl)methyl)amino)methylene)benzenesulfonamide]	1710 nM
N/C(=N\C(=O)CCc1ccccc1)NCc1cnc(-c2ccc(Cl)cc2)c(-c2ccc(Cl)cc2)c1 [Compound of Example 74, N-(amino(((5,6-bis(4-chlorophenyl)pyridin-3-yl)methyl)amino)methylene)-3-phenylpropanamide]	296 nM
N/C(=N\S(=O)(=O)c1ccccc1)NCc1cnc(-c2ccc(F)cc2)c(-c2ccc(Cl)cc2)c1 [Compound of Example 8, N-(amino(((5-(4-chlorophenyl)-6-(4-fluorophenyl)pyridin-3-yl)methyl)amino)methylene)benzenesulfonamide]	1290 nM
N/C(=N\S(=O)(=O)c1ccccc1)NCc1cnc(-c2ccc(Cl)cc2)c(-c2ccccc2)c1 [Compound of Example 14, N-(amino(((6-(4-chlorophenyl)-5-phenylpyridin-3-yl)methyl)amino)methylene)benzenesulfonamide]	692 nM
N/C(=N\S(=O)(=O)c1cccs1)NCc1cnc(-c2ccc(Cl)cc2)c(-c2ccc(Cl)cc2)c1 [Compound of Example 29, N-(amino(((5,6-bis(4-chlorophenyl)pyridin-3-yl)methyl)amino)methylene)thiophene-2-sulfonamide]	100 nM
NC(=NS(=O)(=O)c1ccccc1)NCc1ccc(-c2ccc(Cl)cc2)c(-c2ccc(Cl)cc2)n1 [Compound of Example 45, N-(amino(((5,6-bis(4-chlorophenyl)pyridin-2-yl)methyl)amino)methylene)benzenesulfonamide Hydrochloride]	221 nM
N/C(=N\C(=O)c1ccccn1)NCc1cnc(-c2ccc(Cl)cc2)c(-c2ccc(Cl)cc2)c1 [Compound of Example 82, N-(amino(((5,6-bis(4-chlorophenyl)pyridin-3-yl)methyl)amino)methylene)picolinamide]	744 nM
